What was measured:
Type in all cases: functional
M14 [1] = assay: Growth inhibition of human M14 cells assessed as cell growth at 10^-7 M incubated for 48 hrs by sulforhodamine B assay relative to control; conditions: M14, 48 h, read-out: Activity
EKVX [2] = assay: Growth inhibition of human EKVX cells assessed as cell growth at 10^-6 M incubated for 48 hrs by sulforhodamine B assay relative to control; conditions: read-out: Activity
UACC-257 = assay: Cytotoxicity against human UACC257 cells after 48 hrs by SRB assay; conditions: UACC-257, 48 h
EKVX [3] = assay: Growth inhibition of human EKVX cells assessed as cell growth at 10^-7 M incubated for 48 hrs by sulforhodamine B assay relative to control; conditions: read-out: Activity
MDA-MB-231 [4] = assay: Growth inhibition of human MDA-MB-231 cells assessed as cell growth at 10^-4 M incubated for 48 hrs by sulforhodamine B assay relative to control; conditions: MDA-MB-231, 48 h, read-out: Activity
MDA-MB-231 [5] = assay: Growth inhibition of human MDA-MB-231 cells assessed as cell growth at 10^-5 M incubated for 48 hrs by sulforhodamine B assay relative to control; conditions: MDA-MB-231, 48 h, read-out: Activity
BT-549 [6] = assay: Growth inhibition of human BT549 cells assessed as cell growth at 10^-7 M incubated for 48 hrs by sulforhodamine B assay relative to control; conditions: BT-549, 48 h, read-out: Activity
SN12C [7] = assay: Growth inhibition of human SN12C cells assessed as cell growth at 10^-7 M incubated for 48 hrs by sulforhodamine B assay relative to control; conditions: read-out: Activity
SN12C [8] = assay: Growth inhibition of human SN12C cells assessed as cell growth at 10^-8 M incubated for 48 hrs by sulforhodamine B assay relative to control; conditions: read-out: Activity
PC-3 = assay: Growth inhibition of human PC3 cells assessed as cell growth at 10^-8 M incubated for 48 hrs by sulforhodamine B assay relative to control; conditions: PC-3, 48 h, read-out: Activity
OVCAR-8 = assay: Growth inhibition of human OVCAR8 cells assessed as cell growth at 10^-8 M incubated for 48 hrs by sulforhodamine B assay relative to control; conditions: OVCAR-8, 48 h, read-out: Activity
NCI-H226 = assay: Growth inhibition of human NCI-H226 cells assessed as cell growth at 10^-7 M incubated for 48 hrs by sulforhodamine B assay relative to control; conditions: NCI-H226, 48 h, read-out: Activity
HCT-15 = assay: Growth inhibition of human HCT15 cells assessed as cell growth at 10^-4 M incubated for 48 hrs by sulforhodamine B assay relative to control; conditions: HCT-15, 48 h, read-out: Activity
A498 [9] = assay: Cytotoxicity against human A498 cells after 48 hrs by SRB assay; conditions: A498, 48 h
BT-549 [10] = assay: Growth inhibition of human BT549 cells assessed as cell growth at 10^-6 M incubated for 48 hrs by sulforhodamine B assay relative to control; conditions: BT-549, 48 h, read-out: Activity
HL-60(TB) = assay: Growth inhibition of human HL-60(TB) cells assessed as cell growth at 10^-7 M incubated for 48 hrs by sulforhodamine B assay relative to control; conditions: HL-60, 48 h, read-out: Activity
OVCAR-4 = assay: Growth inhibition of human OVCAR4 cells assessed as cell growth at 10^-7 M incubated for 48 hrs by sulforhodamine B assay relative to control; conditions: OVCAR-4, 48 h, read-out: Activity
UO-31 [11] = assay: Growth inhibition of human UO31 cells assessed as cell growth at 10^-7 M incubated for 48 hrs by sulforhodamine B assay relative to control; conditions: UO-31, 48 h, read-out: Activity
K562 = assay: Cytotoxicity against human K562 cells after 48 hrs by SRB assay; conditions: K562, 48 h
CCRF-CEM = assay: Growth inhibition of human CCRF-CEM cells assessed as cell growth at 10^-8 M incubated for 48 hrs by sulforhodamine B assay relative to control; conditions: read-out: Activity
M14 [12] = assay: Cytotoxicity against human M14 cells after 48 hrs by SRB assay; conditions: M14, 48 h
SF-295 = assay: Growth inhibition of human SF295 cells assessed as cell growth at 10^-6 M incubated for 48 hrs by sulforhodamine B assay relative to control; conditions: SF-295, 48 h, read-out: Activity
UO-31 [13] = assay: Cytotoxicity against human UO31 cells after 48 hrs by SRB assay; conditions: UO-31, 48 h
Hs-578T = assay: Growth inhibition of human Hs 578T cells assessed as cell growth at 10^-7 M incubated for 48 hrs by sulforhodamine B assay relative to control; conditions: read-out: Activity
SNB-19 = assay: Cytotoxicity against human SNB19 cells after 48 hrs by SRB assay; conditions: SNB-19, 48 h
COLO 205 = assay: Cytotoxicity against human COLO205 cells after 48 hrs by SRB assay; conditions: COLO 205, 48 h
UO-31 [14] = assay: Growth inhibition of human UO31 cells assessed as cell growth at 10^-8 M incubated for 48 hrs by sulforhodamine B assay relative to control; conditions: UO-31, 48 h, read-out: Activity
A498 [15] = assay: Growth inhibition of human A498 cells assessed as cell growth at 10^-8 M incubated for 48 hrs by sulforhodamine B assay relative to control; conditions: A498, 48 h, read-out: Activity
SF-539 = assay: Cytotoxicity against human SF539 cells after 48 hrs by SRB assay; conditions: SF-539, 48 h
ACHN [16] = assay: Growth inhibition of human ACHN cells assessed as cell growth at 10^-8 M incubated for 48 hrs by sulforhodamine B assay relative to control; conditions: read-out: Activity
ACHN [17] = assay: Growth inhibition of human ACHN cells assessed as cell growth at 10^-6 M incubated for 48 hrs by sulforhodamine B assay relative to control; conditions: read-out: Activity
TK-10 = assay: Cytotoxicity against human TK10 cells after 48 hrs by SRB assay; conditions: TK-10, 48 h
ACHN [18] = assay: Growth inhibition of human ACHN cells assessed as cell growth at 10^-4 M incubated for 48 hrs by sulforhodamine B assay relative to control; conditions: read-out: Activity
[19] = read-out: LC50 (the source's name)

C#C[C@@]1(O)[C@@H](CO)O[C@@H](n2cc(I)c3c(N)ncnc32)[C@@H]1O
growth at 0.1 µM (M14 [1]): 67 to 75%
growth at 1 µM (EKVX [2]): 33 to 38%
GI50 (UACC-257; read-out: GI50): 2.18 to 2.5 µM
CC50 (UACC-257; [19]): > 100 µM
TGI (UACC-257; read-out: TGI): 18.6 to 41.5 µM
growth at 0.1 µM (EKVX [3]): 69 to 75%
growth at 100 µM (MDA-MB-231 [4]): 11 to 12%
growth at 10 µM (MDA-MB-231 [5]): 10 to 12%
growth at 0.1 µM (BT-549 [6]): 61 to 76%
growth at 0.1 µM (SN12C [7]): 43 to 54%
growth at 0.01 µM (SN12C [8]): 85 to 90%
growth at 0.01 µM (PC-3): 81 to 84%
growth at 0.01 µM (OVCAR-8): 75 to 89%
growth at 0.1 µM (NCI-H226): 75 to 95%
growth at 100 µM (HCT-15): 1%
GI50 (A498 [9]; read-out: GI50): 0.211 to 0.453 µM
CC50 (A498 [9]; [19]): 4.69 to 6.4 µM
TGI (A498 [9]; read-out: TGI): 1.03 to 1.98 µM
growth at 1 µM (BT-549 [10]): 17 to 32%
growth at 0.1 µM (HL-60(TB)): 16 to 43%
growth at 0.1 µM (OVCAR-4): 87 to 91%
growth at 0.1 µM (UO-31 [11]): 46 to 50%
GI50 (K562; read-out: GI50): 0.0595 to 0.069 µM
TGI (K562; read-out: TGI): > 100 µM
CC50 (K562; read-out: pLC50 (the source's name) (converted)): > 100 µM
TGI (K562; read-out: pTGI): > 100 µM
growth at 0.01 µM (CCRF-CEM): 97%
GI50 (M14 [12]; read-out: GI50): 0.393 to 0.611 µM
CC50 (M14 [12]; [19]): 55.5 to 100 µM
TGI (M14 [12]; read-out: TGI): 8.47 to 10.7 µM
growth at 1 µM (SF-295): 31 to 35%
GI50 (UO-31 [13]; read-out: GI50): 0.0791 to 0.103 µM
CC50 (UO-31 [13]; [19]): > 100 µM
TGI (UO-31 [13]; read-out: TGI): 3.07 to 3.3 µM
growth at 0.1 µM (Hs-578T): 73 to 84%
GI50 (SNB-19; read-out: GI50): 0.0535 to 0.185 µM
CC50 (SNB-19; [19]): > 100 µM
TGI (SNB-19; read-out: TGI): 25 to 100 µM
GI50 (COLO 205; read-out: GI50): 0.0448 to 0.17 µM
CC50 (COLO 205; [19]): 4.78 to 6.74 µM
TGI (COLO 205; read-out: TGI): 0.393 to 1.27 µM
growth at 0.01 µM (UO-31 [14]): 84 to 85%
growth at 0.01 µM (A498 [15]): 88 to 102%
GI50 (SF-539; read-out: GI50): 0.304 to 0.471 µM
CC50 (SF-539; [19]): 28.6 to 31.3 µM
TGI (SF-539; read-out: TGI): 2.18 to 2.98 µM
growth at 0.01 µM (ACHN [16]): 98%
growth at 1 µM (ACHN [17]): 28%
GI50 (TK-10; read-out: GI50): 0.551 to 0.572 µM
CC50 (TK-10; [19]): > 100 µM
TGI (TK-10; read-out: TGI): 5.51 µM
TGI (TK-10; read-out: pTGI (converted)): 5.5 µM
growth at 100 µM (ACHN [18]): 1%

Source: ChEMBL document CHEMBL4270599, “Synthesis of a 3'-C-ethynyl-β-d-ribofuranose purine nucleoside library: Discovery of C7-deazapurine analogs as potent antiproliferative nucleosides” (Eur J Med Chem, 2018)
